Assay results taken from article PMC7156612, “Olinciguat, an Oral sGC Stimulator, Exhibits Diverse Pharmacology Across Preclinical Models of Cardiovascular, Metabolic, Renal, and Inflammatory Disease” (Frontiers in Pharmacology, 2020).
Where two headings read alike, the source gives them in different places.

Legend:
[1] = test system: human subcutaneous resistance arteries; assay: Human vascular smooth muscle relaxation (U46619-precontracted arteries); type: cell-based; settings: for EC50: Homo sapiens
Method: The effect of olinciguat on relaxation of contracted human subcutaneous resistance arteries was determined according to methods described in ([Tobin et al., 2018]). In brief, human subcutaneous resistance arteries were obtained from three donors (females ages 27–51) undergoing elective surgeries. Arteries were mounted in a tissue bath and precontracted with the thromboxane mimetic, U46619 (100 nM). Only tissues containing functional endothelium, as determined by relaxation in response to acetylcholine (10 µM), were used. A cumulative concentration-response curve (0.1 to 10 µM) was generated for olinciguat, followed by addition of the NO donor sodium nitroprusside (100 μM). Percent relaxation at each olinciguat concentration was determined relative to the U46619-mediated contraction. Using GraphPad Prism v.7, a sigmoidal dose-response (variable slope) curve was fit with the bottom value constrained to zero to determine the EC50.

sGC = biological target: T1, sGC (Homo sapiens, UniProt Q02108+Q02153); assay: sGC whole cell assay (HEK-293, cGMP production); type: cell-based
T1 construct: HEK-293 cells endogenously expressing sGC were treated with olinciguat; host or cells: HEK-293
T1 sequence (Q02153 1-619): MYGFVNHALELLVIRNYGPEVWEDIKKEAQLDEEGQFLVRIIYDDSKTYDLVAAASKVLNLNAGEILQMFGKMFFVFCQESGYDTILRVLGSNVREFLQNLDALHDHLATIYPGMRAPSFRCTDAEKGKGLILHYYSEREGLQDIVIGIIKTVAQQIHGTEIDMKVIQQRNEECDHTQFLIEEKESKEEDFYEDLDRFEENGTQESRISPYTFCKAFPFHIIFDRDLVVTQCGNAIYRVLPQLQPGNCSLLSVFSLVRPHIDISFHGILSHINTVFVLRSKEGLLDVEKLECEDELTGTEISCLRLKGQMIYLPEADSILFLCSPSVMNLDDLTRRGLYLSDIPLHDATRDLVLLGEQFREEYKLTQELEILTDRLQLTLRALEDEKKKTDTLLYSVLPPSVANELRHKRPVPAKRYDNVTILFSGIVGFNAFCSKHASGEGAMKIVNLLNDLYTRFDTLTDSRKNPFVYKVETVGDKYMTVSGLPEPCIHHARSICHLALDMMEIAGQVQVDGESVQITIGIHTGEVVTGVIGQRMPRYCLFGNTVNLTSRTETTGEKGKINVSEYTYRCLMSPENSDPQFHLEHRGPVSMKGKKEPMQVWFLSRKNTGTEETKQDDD
T1 sequence (Q02108 1-690): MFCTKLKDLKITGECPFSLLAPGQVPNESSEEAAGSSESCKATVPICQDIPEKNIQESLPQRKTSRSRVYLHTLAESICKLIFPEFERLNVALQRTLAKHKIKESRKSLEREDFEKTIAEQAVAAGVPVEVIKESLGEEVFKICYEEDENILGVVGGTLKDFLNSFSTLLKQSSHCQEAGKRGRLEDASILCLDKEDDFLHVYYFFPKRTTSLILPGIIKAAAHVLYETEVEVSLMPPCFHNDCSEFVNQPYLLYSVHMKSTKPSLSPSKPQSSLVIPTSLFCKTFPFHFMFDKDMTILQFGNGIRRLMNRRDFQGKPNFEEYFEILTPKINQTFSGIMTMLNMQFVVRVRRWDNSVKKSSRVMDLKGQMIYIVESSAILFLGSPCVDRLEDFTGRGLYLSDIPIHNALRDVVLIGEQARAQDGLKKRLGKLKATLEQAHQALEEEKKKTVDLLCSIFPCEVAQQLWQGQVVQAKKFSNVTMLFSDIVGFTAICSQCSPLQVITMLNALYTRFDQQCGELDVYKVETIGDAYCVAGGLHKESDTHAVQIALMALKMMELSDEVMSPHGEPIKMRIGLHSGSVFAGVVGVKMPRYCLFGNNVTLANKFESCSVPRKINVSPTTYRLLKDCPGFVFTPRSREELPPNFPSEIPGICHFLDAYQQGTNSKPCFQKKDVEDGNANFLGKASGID
Method: The human embryonic kidney (HEK)-293 whole cell assay was performed as described ([Tobin et al., 2018]). Briefly, HEK-293 cells (ATCC, Manassas, VA, #CRL-1573) were maintained in Dulbecco's modified Eagle's medium (DMEM) containing serum and antibiotics. Assays were performed in 384-well plates at 37°C by preincubating with 0.5 mM 3-isobutyl-1-methylxanthine (IBMX) in Hanks' Balanced Salt Solution (HBSS) containing calcium and magnesium for 15 min, then adding olinciguat with or without the NO donor diethylenetriamine NONOate (DETA), followed by a 20-min incubation. Cells were lysed with ice-cold 10% acetic acid then centrifuged, and cGMP levels in supernatants were determined by reverse-phase liquid chromatography with tandem mass spectrometry (LC-MS/MS). Concentration-response data were fit using a four-parameter fit (log(agonist) vs response – variable slope) using GraphPad Prism v.7.

NC(=O)[C@](O)(CNc1nc(-c2cc(-c3ccon3)n(Cc3ccccc3F)n2)ncc1F)C(F)(F)F [olinciguat, (R)-3,3,3-trifluoro-2-(((5-fluoro-2-(1-(2-fluorobenzyl)-5-(isoxazol-3-yl)-1H-pyrazol-3-yl)pyrimidin-4-yl)amino)methyl)-2-hydroxypropanamide]
mean relaxation at 10 μM ([1]; 10 μM olinciguat, relative to U46619-mediated contraction): 94.8% | EC50 ([1]; Table 2 summary, read-out: Human vascular relaxation EC50, olinciguat concentration (range = 95% CI)): 16 to 38 nM | EC50 ([1]; pre-contracted with U46619 100 nM, n=3 donors, 95% CI 16 to 38 nM, read-out: EC50, relaxation of pre-contracted arteries): 24.3 nM | EC50 (sGC; HEK-293 cells endogenously expressing sGC, in the presence of 10 µM DETA, geometric mean of 14 experiments, 95% CI 42.7 to 105 nM, read-out: EC50, cGMP production): 73.8 nM | EC50 (sGC; Table 2 summary, 10 µM DETA, read-out: Human cellular sGC assay (HEK-293) EC50, olinciguat concentration (range = 95% CI)): 42.7 to 105 nM
